Measured values published in patent US20240279684A1, “CYTOSOLIC DELIVERY OF GENOME EDITING TOOLS” (SAPREME TECHNOLOGIES B.V., priority 2021, published 2024).
Entries after “also recorded” stand apart in the source; their conditions may differ.

Test system: Neuro-2A cells
Assay: Transfection efficiency of PD-nanoplexes with/without saponin, flow cytometry (GFP)
Type: cell-based, murine
Experimental: After biophysical characterisation had established that nanoplexes of the large plasmid DNA and the poly-lysine peptide were formed, cell experiments were performed: transfections. […] Without wishing to be bound by any theory, the latter effect is most likely due to insufficient complexing of DNA. […] JIMT-1-cells (DSMZ no.: ACC 589) and Neuro-2A- cells (DSMZ no.: ACC 148) were transfected with nanoplexes containing relatively large Cas9-GFP-plasmid, with and without GE1741-Co-application or SO1861-Co-application at a non-toxic concentration, when the cell which is to be transfected is considered. The transfection efficiency of all transfection conditions was measured after 48 h incubation time using flow cytometry by comparison to the negative control in terms of fluorescence intensity (for example, cells contacted with the nanoparticles in the absence of saponin). The efficiency of GE1741-based transfections and SO1861-based transfections was also compared with efficiency of Lipofectamine3000™-based transfection of the nanoparticles. Transfections were performed according to protocols commonly known and applied in the field (Clochard et al., 2020; Sama et al., 2018a; Sama et al., 2017; Sama et al., 2018b). […] Transfection efficiency of GE1741-mediated PD-transfection and SO1861-mediated PD-transfections on Neuro-2A cells and JIMT-1 cells was assessed. Cells were transfected with Cas9-GFP-DNA containing PD-nanoplexes, with and without GE1741 or SO1861 (final concentration of the saponin was 2 μg/ml). In Neuro-2A cells and JIMT-1 cells transection efficiency varied between 30% and 40%. Lipofectamin3000 served as reference. n≥3; a significant difference compared to the GE1741-free transfections or SO1861-free transfections was apparent, U-test, p≤0.05.
FIG. 4A, B. Transfection efficiency of saponin-mediated PD (Cas9-GFP)-transfections on Neuro-2A cells (FIG. 4A) and on JIMT-1-cells (FIG. 4B). Neuro-2A cells (A) and JIMT-1 cells (B) were transfected with GFP-DNA (i.e. a plasmid comprising the GFP DNA) bearing PD-nanoplexes or with Cas9-GFP-DNA bearing PD-nanoplexes, with and without the highest non-toxic saponin Co-administration (GE1741 Co-administration at 2 μg/ml or SO1861 Co-administration at 2 μg/ml). While GFP-DNA-transfections reached high efficiencies of around 70%, approximately 40% of all cells expressed GFP after Cas9-GFP-transfection. […] N≥3; *: significant difference compared to the saponin-free transfection (only nuclease), U-test.
JIMT-1-cells (human breast carcinoma) and Neuro-2A-cells (murine neuroblastoma) were transfected with nanoplexes, containing Cas9-GFP-plasmid, with and without saponin GE1741-co-application or saponin SO1861-co-application (that is to say, the saponin is added to the cell culture together with the addition of the nanoparticles comprising the nucleic acid that is to be transfected in the presence of the saponin), in a non-toxic concentration when the saponins are considered. The mass ratios for the peptide and the nucleic acid (plasmid DNA) in the nanoparticles were selected considering the dynamic light scattering (DLS) measurements and considering the aforementioned earlier assessed toxicity and earlier performed efficiency studies. The transfection efficiency of all transfection conditions was measured after 48 h incubation time via flow cytometry by comparison to the negative control in terms of fluorescence intensity (FIG. 4). […]

With CC(=O)OC1C(C)OC(OC2C(C)OC(OC(=O)C34CCC(C)(C)CC3C3=CCC5C6(C)CCC(OC7OC(C(=O)O)C(O)C(OC8OCC(O)C(O)C8O)C7OC7OC(CO)C(O)C(O)C7O)C(C)(C=O)C6CCC5(C)C3(C)CC4O)C(OC3OC(C)C(OC4OCC(O)C(OC5OCC(O)C(O)C5O)C4O)C(O)C3O)C2O)C(O)C1OC(C)=O (stereo not drawn) [GE1741] the “transfection efficiency (cells expressing GFP)” value (GFP-DNA PD-nanoplexes, saponin 2 μg/ml, Neuro-2A) was “around 70%”, the “transfection modulating properties compared to SO1861” value (large plasmid PD-nanoplexes, Neuro-2A and JIMT-1) was “slightly better transfection modulating properties; also recorded: even more improved transfection efficiency” and the “transfection efficiency compared with Lipofectamine3000” value (nanoplexes of relatively large DNA plasmid and poly-lysine, saponin present) was “higher than obtainable with current gold standard Lipofectamine3000™”.
